System: glycolysis in HT1080 cells
Assay: Glycolysis assay: oligomycin plus compound, cellular ATP by Cell Titer Glo
Assay type: cell-based
Conditions: 10 μM oligomycin, one hour, class symbols
How it was run: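 Confluent HT1080 cells treated 1 h with compound plus 10 μM oligomycin to block mitochondrial ATP, so remaining ATP reflects glycolysis. Cellular ATP read by Cell Titer-Glo luminescence; IC50 derived from dose-response curves.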

SMILES	IC50
O=C(Nc1cccc(-c2nc(Nc3ccc(-c4cn[nH]c4)cc3)c3sccc3n2)c1)c1cccnc1 [Example 178, N-(3-(4-((4-(1H-pyrazol-4-yl)phenyl)amino)thieno[3,2-d]pyrimidin-2-yl)phenyl)nicotinamide]	10 to 100 nM

Same assay, conditions: Homo sapiens, HT-1080, 1 h, 10 μM oligomycin, one hour, class symbols

SMILES	IC50
CC(C)N1CCc2nc(-c3cccc(OCC(=O)NC4CCC4)c3)nc(Nc3ccc(-c4cn[nH]c4)cc3)c2C1 [Example 159, 2-(3-(4-((4-(1H-pyrazol-4-yl)phenyl)amino)-6-isopropyl-5,6,7,8-tetrahydropyrido[4,3-d]pyrimidin-2-yl)phenoxy)-N-cyclobutylacetamide]	251 to 500 nM
CCN1CCc2nc(-c3cccc(OCC(=O)NC4CCC4)c3)nc(Nc3ccc(-c4cn[nH]c4)cc3)c2C1 [Example 160, 2-(3-(4-((4-(1H-pyrazol-4-yl)phenyl)amino)-6-ethyl-5,6,7,8-tetrahydropyrido[4,3-d]pyrimidin-2-yl)phenoxy)-N-cyclobutylacetamide]	251 to 500 nM
CC(C)CNC(=O)COc1cccc(-c2nc3c(c(Nc4ccc(-c5cn[nH]c5)cc4)n2)CNCC3)c1 [Example 161, 2-(3-(4-((4-(1H-pyrazol-4-yl)phenyl)amino)-5,6,7,8-tetrahydropyrido[4,3-d]pyrimidin-2-yl)phenoxy)-N-isobutylacetamide]	251 to 500 nM
CCN1CCc2nc(-c3cccc(OCC(=O)NCC(C)C)c3)nc(Nc3ccc(-c4cn[nH]c4)cc3)c2C1 [Example 164, 2-(3-(4-((4-(1H-pyrazol-4-yl)phenyl)amino)-6-ethyl-5,6,7,8-tetrahydropyrido[4,3-d]pyrimidin-2-yl)phenoxy)-N-isobutylacetamide]	251 to 500 nM
CCC(C)(C)NC(=O)COc1cccc(-c2nc(Nc3ccc(-c4cn[nH]c4)cc3)c3ccncc3n2)c1 [Example 165, 2-(3-(4-((4-(1H-pyrazol-4-yl)phenyl)amino)pyrido[3,4-d]pyrimidin-2-yl)phenoxy)-N-(tert-pentyl)acetamide]	10 to 100 nM
CCC(C)(C)NC(=O)COc1cccc(-c2nc3c(c(Nc4ccc(-c5cn[nH]c5)cc4)n2)COCC3)c1 [Example 166, 2-(3-(4-((4-(1H-pyrazol-4-yl)phenyl)amino)-7,8-dihydro-5H-pyrano[4,3-d]pyrimidin-2-yl)phenoxy)-N-(tert-pentyl)acetamide]	10 to 100 nM
CC(C)(C)CNC(=O)COc1cccc(-c2nc3c(c(Nc4ccc(-c5cn[nH]c5)cc4)n2)CNCC3)c1 [Example 167, 2-(3-(4-((4-(1H-pyrazol-4-yl)phenyl)amino)-5,6,7,8-tetrahydropyrido[4,3-d]pyrimidin-2-yl)phenoxy)-N-neopentylacetamide]	10 to 100 nM
CN1CCc2nc(-c3cccc(OCC(=O)NCC(C)(C)C)c3)nc(Nc3ccc(-c4cn[nH]c4)cc3)c2C1 [Example 168, 2-(3-(4-((4-(1H-pyrazol-4-yl)phenyl)amino)-6-methyl-5,6,7,8-tetrahydropyrido[4,3-d]pyrimidin-2-yl)phenoxy)-N-neopentylacetamide]	101 to 250 nM
CCN1CCc2nc(-c3cccc(OCC(=O)NCC(C)(C)C)c3)nc(Nc3ccc(-c4cn[nH]c4)cc3)c2C1 [Example 170, 2-(3-(4-((4-(1H-pyrazol-4-yl)phenyl)amino)-6-ethyl-5,6,7,8-tetrahydropyrido[4,3-d]pyrimidin-2-yl)phenoxy)-N-neopentylacetamide]	101 to 250 nM
CC(C(=O)Nc1cccc(-c2nc3c(c(Nc4ccc(-c5cn[nH]c5)cc4)n2)COC3)c1)N1CCOCC1 (stereo not drawn) [Example 171, N-(3-(4-((4-(1H-pyrazol-4-yl)phenyl)amino)-5,7-dihydrofuro[3,4-d]pyrimidin-2-yl)phenyl)-2-morpholinopropanamide]	501 to 1000 nM
CC(C(=O)Nc1cccc(-c2nc(Nc3ccc(-c4cn[nH]c4)cc3)c3occc3n2)c1)N1CCOCC1 (stereo not drawn) [Example 172, N-(3-(4-((4-(1H-pyrazol-4-yl)phenyl)amino)furo[3,2-d]pyrimidin-2-yl)phenyl)-2-morpholinopropanamide]	101 to 250 nM
CC(C(=O)Nc1cccc(-c2nc(Nc3ccc(-c4cn[nH]c4)cc3)c3sccc3n2)c1)N1CCOCC1 (stereo not drawn) [Example 173, N-(3-(4-((4-(1H-pyrazol-4-yl)phenyl)amino)thieno[3,2-d]pyrimidin-2-yl)phenyl)-2-morpholinopropanamide]	251 to 500 nM
O=C(Nc1cccc(-c2nc(Nc3ccc(-c4cn[nH]c4)cc3)c3sccc3n2)c1)c1ccncc1 [Example 174, N-(3-(4-((4-(1H-pyrazol-4-yl)phenyl)amino)thieno[3,2-d]pyrimidin-2-yl)phenyl)isonicotinamide]	501 to 1000 nM
O=C(Nc1cccc(-c2nc3c(c(Nc4ccc(-c5cn[nH]c5)cc4)n2)COC3)c1)c1ccncc1 [Example 175, N-(3-(4-((4-(1H-pyrazol-4-yl)phenyl)amino)-5,7-dihydrofuro[3,4-d]pyrimidin-2-yl)phenyl)isonicotinamide]	501 to 1000 nM
O=C(Nc1cccc(-c2nc(Nc3ccc(-c4cn[nH]c4)cc3)c3sccc3n2)c1)c1ccccn1 [Example 176, N-(3-(4-((4-(1H-pyrazol-4-yl)phenyl)amino)thieno[3,2-d]pyrimidin-2-yl)phenyl)picolinamide]	> 1000 nM
O=C(Nc1cccc(-c2nc3c(c(Nc4ccc(-c5cn[nH]c5)cc4)n2)COC3)c1)c1ccccn1 [Example 177, N-(3-(4-((4-(1H-pyrazol-4-yl)phenyl)amino)-5,7-dihydrofuro[3,4-d]pyrimidin-2-yl)phenyl)picolinamide]	10 to 100 nM
O=C(COc1cccc(-c2nc(Nc3ccc(-c4cn[nH]c4)cc3)c3sccc3n2)c1)NC1CC(F)(F)C1 [Example 179, 2-(3-(4-((4-(1H-pyrazol-4-yl)phenyl)amino)thieno[3,2-d]pyrimidin-2-yl)phenoxy)-N-(3,3-difluorocyclobutyl)acetamide]	251 to 500 nM
O=C(COc1cccc(-c2nc(Nc3ccc(-c4cn[nH]c4)cc3)c3sccc3n2)c1)NC1CCCCC1 [Example 180, 2-(3-(4-((4-(1H-pyrazol-4-yl)phenyl)amino)thieno[3,2-d]pyrimidin-2-yl)phenoxy)-N-cyclohexylacetamide]	101 to 250 nM
CCC(CC)NC(=O)COc1cccc(-c2nc(Nc3ccc(-c4cn[nH]c4)cc3)c3sccc3n2)c1 [Example 181, 2-(3-(4-((4-(1H-pyrazol-4-yl)phenyl)amino)thieno[3,2-d]pyrimidin-2-yl)phenoxy)-N-(pentan-3-yl)acetamide]	251 to 500 nM
CC(C)NC(=O)COc1cncc(-c2nc(Nc3ccc(-c4cn[nH]c4)cc3)c3ccsc3n2)c1 [Example 182, 2-((5-(4-((4-(1H-pyrazol-4-yl)phenyl)amino)thieno[2,3-d]pyrimidin-2-yl)pyridin-3-yl)oxy)-N-isopropylacetamide]	> 1000 nM
CN1CCN(CC(=O)Nc2cccc(-c3nc(Nc4ccc(-c5cn[nH]c5)cc4)c4sccc4n3)c2)CC1 [Example 183, N-(3-(4-((4-(1H-pyrazol-4-yl)phenyl)amino)thieno[3,2-d]pyrimidin-2-yl)phenyl)-2-(4-methylpiperazin-1-yl)acetamide]	501 to 1000 nM
CN1CCN(CC(=O)Nc2cccc(-c3nc(Nc4ccc(-c5cn[nH]c5)cc4)c4occc4n3)c2)CC1 [Example 184, N-(3-(4-((4-(1H-pyrazol-4-yl)phenyl)amino)furo[3,2-d]pyrimidin-2-yl)phenyl)-2-(4-methylpiperazin-1-yl)acetamide]	501 to 1000 nM
CC(C)NC(=O)C(C)Oc1cccc(-c2nc3c(c(Nc4ccc(-c5cn[nH]c5)cc4)n2)COC3)c1 (stereo not drawn) [Example 185, 2-(3-(4-((4-(1H-pyrazol-4-yl)phenyl)amino)-5,7-dihydrofuro[3,4-d]pyrimidin-2-yl)phenoxy)-N-isopropylpropanamide]	> 1000 nM
CC(C)CNC(=O)C(C)Oc1cccc(-c2nc3c(c(Nc4ccc(-c5cn[nH]c5)cc4)n2)COC3)c1 (stereo not drawn) [Example 186, 2-(3-(4-((4-(1H-pyrazol-4-yl)phenyl)amino)-5,7-dihydrofuro[3,4-d]pyrimidin-2-yl)phenoxy)-N-isobutylpropanamide]	> 1000 nM
CCC(C)NC(=O)C(C)Oc1cccc(-c2nc3c(c(Nc4ccc(-c5cn[nH]c5)cc4)n2)COC3)c1 (stereo not drawn) [Example 187, 2-(3-(4-((4-(1H-pyrazol-4-yl)phenyl)amino)-5,7-dihydrofuro[3,4-d]pyrimidin-2-yl)phenoxy)-N-(sec-butyl)propanamide]	> 1000 nM
CC(Oc1cccc(-c2nc3c(c(Nc4ccc(-c5cn[nH]c5)cc4)n2)COC3)c1)C(=O)NC(C)(C)C (stereo not drawn) [Example 188, 2-(3-(4-((4-(1H-pyrazol-4-yl)phenyl)amino)-5,7-dihydrofuro[3,4-d]pyrimidin-2-yl)phenoxy)-N-(tert-butyl)propanamide]	> 1000 nM
CC(Oc1cccc(-c2nc3c(c(Nc4ccc(-c5cn[nH]c5)cc4)n2)COC3)c1)C(=O)NCC(C)(C)C (stereo not drawn) [Example 189, 2-(3-(4-((4-(1H-pyrazol-4-yl)phenyl)amino)-5,7-dihydrofuro[3,4-d]pyrimidin-2-yl)phenoxy)-N-neopentylpropanamide]	251 to 500 nM

Same assay, conditions: Homo sapiens, HT-1080, 1 h, 10 μM oligomycin, one hour, number printed instead of class

SMILES	IC50
CC(C)N1CCc2nc(-c3cccc(OCC(=O)NCC(C)(C)C)c3)nc(Nc3ccc(-c4cn[nH]c4)cc3)c2C1 [Example 169, 2-(3-(4-((4-(1H-pyrazol-4-yl)phenyl)amino)-6-isopropyl-5,6,7,8-tetrahydropyrido[4,3-d]pyrimidin-2-yl)phenoxy)-N-neopentylacetamide]	290 nM

Same assay, conditions: one hour, alone

SMILES	cellular ATP levels, agent alone
CC[C@H]1/C=C/C=C/C[C@@H](C)[C@H](O)[C@@](C)(O)C(=O)[C@@H](C)[C@H](O)[C@@H](C)C(=O)[C@@H](C)[C@H](O)[C@@H](C)/C=C/C(=O)O[C@@H]2[C@H](C)[C@H](CC1)O[C@]1(CC[C@H](C)[C@H](C[C@@H](C)O)O1)[C@H]2C [oligomycin, Oligomycin, reference compound]	neither oligomycin alone nor control GLUT1 inhibitors substantially decrease cellular ATP levels
